Measurements published in US12357624B2, “Low dose pridopidine for Parkinson's Disease and other diseases associated with parkinsonism” (PRILENIA NEUROTHERAPEUTICS LTD., priority 2019, dated 2025).
Read-outs that look alike come from different tables or passages of the source.

Assays:
[1] = target: Sigma-1 receptor (S1R) vs dopamine D2/D3Rs (Rattus norvegicus, UniProt Q9R0C9); conditions: rats; behaviorally relevant doses; cited from earlier work
6-OHDA-lesioned mice [2] = system: 6-OHDA-lesioned mice
Procedure: (§1) The study was performed in male C57B16J mice weighing approx. 25 g and having an age of 8 to 9 weeks at the beginning of the experiments. A total of 65 wild-type mice and 52 S1R knockout (KO) mice were used. S1R knockout mice and wild-type littermates (both genders) were bred on a C57BL6J background. Our S1R KO line is derived from the well-characterized Sigmar1^Gt(OST422756)Lex mouse strain distributed by the Mutant Mouse Resource Regional Centre (MMRRC) The mice were housed under a 12-h light/dark cycle with free access to food and water.
(§2) Lesions were performed according to previously described procedures [Francardo V, Bez F, Wieloch T, Nissbrandt H, Ruscher K, Cenci 33. MA. […] Brain: A Journal of Neurology. […] 6-OHDA-HCl (Sigma-Aldrich AB, Stockholm, Sweden) was freshly dissolved in 0.02% ascorbate-saline at the concentration of 3.2 mg free base per milliliter. […] The solution was injected via a glass capillary (tip diameter−50 (1 m) at the rate of 0.5 (1 L/min, and the capillary was left in place for 2 mi after each injection.
The first injection was given immediately upon completion of lesion surgery. […] An impaired capacity to perform adjusting steps during experimenter-imposed movements (stepping test) reflects both akinetic and postural deficits relevant to PD [Blume S R, Cass D K, Tseng K Y. Stepping test in mice: a reliable approach in determining forelimb akinesia in MPTP-induced Parkinson's Disease. Experimental Neurology. […] Experimental Neurology. […] The mouse was placed at the entrance of a custom-made plastic corridor (7 cm wide, 1 m long, flanked by 10-cm-high walls), gently lifted by the tail, and pulled backwards with a fixed speed (1 m/4 s). Each trial was video-recorded, and the footage was used to count the number of adjusting steps performed by each forelimb. Trials in which mice turned their body by 90° towards the walls of the corridor (in an attempt to escape or explore) were discarded. In each session, mice were tested until 3 valid trials per animal were obtained. Results were expressed as the percentage of steps performed by the forelimb contralateral to the lesion (left) over the total number of steps (mean of 3 trials per session).

[3] = system: TH-immunoreactive fibers in the lateral striatum; conditions: chronic
Procedure: Mice allocated to immunohistochemistry were perfusion-fixed on the day after the last rug/saline administration (interval of approx. 20 h from the last injection). Animals were deeply anesthetized with sodium pentobarbital (240 mg/kg, i.p.) and transcardially perfused with 0.9% saline solution, followed by ice-cold buffered 4% paraformaldehyde (pH 7.4). […] Coronal sections of 30 (1 m thickness were cut on a sliding microtome and stored at −20° C. in a nonfreezing solution (30% ethylene glycol and 30% glycerol in 0.1 M phosphate buffer).
Immunohistochemistry and quantitative analyses were performed according to established protocols [Francardo V, Bez F, Wieloch T, Nissbrandt H, Ruscher K, Cenci 33. MA. Neurobiology of Disease. […] Experimental Eye Research. […] (rabbit anti-TH antiserum from Pel-Freez, Rogers, AR, 1:1000) and Cluster of Differentiation 68 (CD68) (rat anti-CD68 antiserum from AbD Serotec, Kidlington, Oxfordshire, UK; 1:1000). Quantitative analyses were performed by an experimentally blinded investigator using the following methods.
Results were expressed as the total number of TH-immunopositive pixels per sample area (averaged across areas). […] The high-magnification analysis of TH fibers on random sample areas was complemented by optical density (O.D.) measurements of TH immunostaining across the entire dorsolateral and ventro-lateral striatum. […]

wild-type motor neurons = conditions: 0.1 μM, locally applied; cited from earlier work
WT and YAC128 neurons = conditions: 24 h treatment; after oligomycin plus FCCP
Procedure: Mitochondrial function was assayed by measuring the levels of the fluorescent probe MitoPY1, which detects H2O2 levels in mitochondria. Mitochondrial membrane potential (MMP) was assessed in cortical and striatal neurons using the positively changed fluorescent probe TMRM (tetramethylrhodamine methyl ester). […] Under these conditions, retention of TMRM by mitochondria was studied to estimate changes in Dym. […] TMRM release was calculated based in the differences in fluorescence before and after addition of oligomycin/FCCP.

[4] = system: STHdhQ7/7 cells expressing Htt96Q-mCherry or Htt20Q-mCherry; conditions: cells without aggregates or cells expressing Htt20Q-mCherry
Description: H2a-GFP was transiently co-expressed with Htt20Q-mCherry or Htt96Q-mCherry (exon 1) in STHdhQ7/7 cells. H2a-GFP aggregation is a marker of cell stress. […] For comparative purposes, 100% represents H2a-GFP relative intensity in untreated cells showing Htt96Q-mCherry aggregates, 0% is H2a-GFP relative intensity in untreated cells without Htt96Q-cherry aggregates.
ER stress levels can be measured using H2a-GFP as protein indicator of early stages of ER stress. H2a-GFP is a misfolded secretory protein which in response to ER stress accumulates. The STHdhQ7/7 is a striatal derived cell line from a knock in transgenic mouse containing homozygous humanized Huntingtin gene (HTT) with 7 polyglutamine repeats (wild type). STHdhQ7/7 cells are transfected with either Htt96Q-mCherry (mutant, mimics the typical pathogenic expression of Htt in HD patients) or Htt20Q-mCherry (normal) constructs. When the polyQ-expanded Htt protein (96Q) exonl fused to fluorescent mCherry protein is expressed, the levels and aggregation of the protein in individual cells can be monitored using a fluorescent microscope.

6-OHDA-lesioned mice [5] = system: 6-OHDA-lesioned mice; remark: listed apart in the source
Procedure: as §1, §2
The first injection was given immediately upon completion of lesion surgery. […] Forelimb use asymmetry during vertical exploration provides a validated measure of forelimb akinesia in hemiparkinsonian rodents [Lundblad M, Andersson M, Winkler C, Kirik D, Wierup N, Cenci M A. Pharmacological validation of behavioural measures of akinesia and dyskinesia in a rat model of Parkinson's disease. The European Journal of Neuroscience. […] The test was executed as in [Francardo V, Bez F, Wieloch T, Nissbrandt H, Ruscher K, Cenci 33. MA. […] The number of supporting wall contacts performed independently by the paw contralateral to the lesion was expressed as a percentage of all supporting wall contacts in each session.

[6] = week 1, pridopidine-treated mice (0.3 or 1.0 mg/kg)

Sigma-1 receptor (S1R) vs dopamine D2/D3Rs, sequence (Q9R0C9 whole entry): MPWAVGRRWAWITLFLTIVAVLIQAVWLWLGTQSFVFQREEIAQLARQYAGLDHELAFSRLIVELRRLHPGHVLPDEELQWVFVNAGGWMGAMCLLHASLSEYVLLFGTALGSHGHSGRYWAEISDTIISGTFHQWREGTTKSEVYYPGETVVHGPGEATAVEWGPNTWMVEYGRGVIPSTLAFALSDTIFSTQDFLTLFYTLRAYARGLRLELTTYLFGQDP

CCCN1CCC(c2cccc(S(C)(=O)=O)c2)CC1 [pridopidine, 4-[3-(methylsulfonyl)phenyl]-1-propyl-piperidine]
receptor occupancy, in vivo PET [1]: occupy the Sigma-1 receptor (S1R) rather than the dopamine D2/D3Rs | stepping test performance (6-OHDA-lesioned mice [2]; 0.3 mg/kg s.c. daily): gradual improvement, diverging significantly from the saline-treated group on weeks 4 and 5 | stepping test, improvement above the vehicle (saline) (6-OHDA-lesioned mice [2]; 0.3 mg/kg s.c. daily, week 5): ~94% | stepping test performance (6-OHDA-lesioned mice [2]; 1.0 mg/kg s.c. daily, last 2 weeks): difference from saline-treated mice did not reach significance | stepping test, difference vs sham (6-OHDA-lesioned mice [2]; 1.0 mg/kg s.c. daily, week 5): ~49% | stepping test, difference vs sham (6-OHDA-lesioned mice [2]; [6]): ~60% | TH fiber profiles, increase in median values relative to saline ([3]; 0.3 mg/kg s.c. daily): about 15 fold | TH fiber profiles vs saline ([3]; 1.0 mg/kg s.c. daily): did not achieve statistical significance | mitochondria transport velocity in axons (wild-type motor neurons): accelerates mitochondria transport in axons | mitochondrial membrane potential (ΔΨm) (WT and YAC128 neurons): increases mitochondrial membrane potential | H2a-GFP levels [4]: does not alter H2a-GFP levels | cylinder test, contralateral forelimb use (6-OHDA-lesioned mice [5]; 0.3 mg/kg s.c. daily): reaching levels of performance comparable with sham-control values on weeks 4 and 5 | cylinder test, contralateral forelimb use (6-OHDA-lesioned mice [5]; 1.0 mg/kg s.c. daily): did not restore contralateral forelimb use in the cylinder test | cylinder test, contralateral forelimb use, difference vs sham (6-OHDA-lesioned mice [5]; 1.0 mg/kg s.c. daily, week 5): ~33% | cylinder test, contralateral forelimb use, difference vs sham (6-OHDA-lesioned mice [5]; [6]): ~40%
